Assay results reported in patent US12257243B2, “5-hydroxy-7-oxabicyclo[2.2.1]heptane-2-carboxamide derivatives for inducing chondrogenesis for treating joint damage” (NOVARTIS AG, priority 2018, dated 2025).

Tested on: ALP in normal human articular chondrocytes (NHACs)
Assay: Alkaline Phosphatase (ALP) activity assay (staining and quantitation) in NHACs, prevention of chondrocyte hypertrophy
Type: cell-based
Conditions: Chondrocyte, 288 h, human IL-1 beta 10 ng/mL, 12 days; for IC50: Fast Blue RR staining, high content imaging, read-out: ALP in NHAC IC50; for Emax: value in parentheses, read-out: ALP in NHAC (% Efficacy)
In short: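 Hypertrophy readout: ALP staining (Fast Blue RR with naphthol AS-MX phosphate) plus Hoechst, imaged at 561 nm and/or quantified by high-content multiwavelength cell scoring. Before staining, NHACs (7,500/well, DMEM/10% FBS) were exposed to compound for 5 h, then cultured with 10 ng/mL IL-1β for 12 days at 37 °C.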

Q: How did the IC50 turn out when `COc1cc(NC(=O)[C@@H]2[C@@H](c3cccc(C(F)(F)F)c3)[C@H]3O[C@@H]2C[C@@H]3O)cc(C(F)(F)F)c1` (racemic) [Example 21, rac-(1R,2R,3S,4R,5S)-5-hydroxy-N-(3-methoxy-5-trifluoromethyl)phenyl)-3-(3-(trifluoromethyl)phenyl)-7-oxabicyclo[2.2.1]heptane-2-carboxamide] was run?
A: 24 µM

Q: What about the Emax of the same compound?
A: 104%

Q: Which IC50 does the source give for `Cn1cc([C@H]2[C@H]3O[C@H](C[C@@H]3O)[C@@H]2C(=O)Nc2ccc(F)c(C(F)(F)F)c2)c(C(F)(F)F)n1` (racemic) [Example 43] here?
A: 7.9 µM

Q: What about the Emax of the same compound?
A: 59%

Q: What does the source list for `O=C(Nc1cc(Cl)cc(C(F)(F)F)c1)[C@@H]1[C@@H](c2cccc(C(F)(F)F)c2)[C@H]2O[C@@H]1C[C@@H]2O` (racemic) [Example 19, rac-(1R,2R,3S,4R,5)-N-(3-chloro-5-(trifluoromethyl)phenyl)-5-hydroxy-3-(3-(trifluoromethyl)phenyl)-7-oxabicyclo[2.2.1]heptane-2-carboxamide]?
A: IC50: 11 µM; Emax: 102%

Q: `Cn1cc([C@H]2[C@H]3O[C@H](C[C@@H]3O)[C@@H]2C(=O)Nc2ccc(N3CCOCC3)c(C(F)(F)F)c2)c(C(F)(F)F)n1` (racemic) [Example 37, rac-(1R,2R,3S,4R,5S)-5-hydroxy-3-(1-methyl-3-(trifluoromethyl)-1H-pyrazol-4-yl)-N-(4-morpholino-3-(trifluoromethyl)phenyl)-7-oxabicyclo[2.2.1]heptane-2-carboxamide] was tested. Which IC50 did it give?
A: > 30 µM

Q: And the Emax?
A: 45%

Q: What does the source list for `COc1cc([C@H]2[C@H]3O[C@H](C[C@@H]3O)[C@@H]2C(=O)Nc2cc(C(F)(F)F)ccc2C#N)ccn1` (racemic) [Example 78, rac-(1R,2R,3S,4R,5)-N-(2-cyano-5-trifluoromethyl)phenyl)-5-hydroxy-3-(2-methoxypyridin-4-yl)-7-oxabicyclo[2.2.1]heptane-2-carboxamide]?
A: IC50: 0.055 µM; Emax: 74%

Q: Which IC50 does the source give for `O=C(Nc1ccc(C(F)(F)F)cc1)[C@@H]1[C@@H](c2ccnc(C(F)(F)F)c2)[C@H]2O[C@@H]1C[C@@H]2O` (racemic) [Example 66, rac-(1R,2R,3S,4R,5S)-5-hydroxy-N-(4-(trifluoromethyl)phenyl)-3-(2-(trifluoromethyl)pyridin-4-yl)-7-oxabicyclo[2.2.1]heptane-2-carboxamide] here?
A: 15 µM

Q: What about the Emax of the same compound?
A: 66%

Q: Which IC50 does the source give for `CCOc1ccc(NC(=O)[C@@H]2[C@@H](c3cn(C)nc3C(F)(F)F)[C@H]3O[C@@H]2C[C@@H]3O)cc1C(F)(F)F` (racemic) [Example 44, rac-(1R,2R,3S,4R,5S)—N-(4-ethoxy-3-(trifluormethyl)phenyl)-5-hydroxy-3-(1-methyl-3-(trifluoromethyl)-1H-pyrazol-4-yl)-7-oxabicyclo[2.2.1]heptane-2-carboxamide] here?
A: 14 µM

Q: What about the Emax of the same compound?
A: 89%

Q: `Cn1nc(C(F)(F)F)cc1[C@H]1[C@H]2O[C@H](C[C@@H]2O)[C@@H]1C(=O)Nc1cccc(C(F)(F)F)c1` (racemic) [Example 61, rac-(1R,2R,3S,4R,5S)-5-hydroxy-3-(1-methyl-3-(trifluoromethyl)-1H-pyrazol-5-yl)-N-(3-(trifluoromethyl)phenyl)-7-oxabicyclo[2.2.1]heptane-2-carboxamide] was tested. Which IC50 did it give?
A: 21 µM

Q: What about the Emax of the same compound?
A: 46%

Q: What does the source list for `Cn1cc([C@H]2[C@H]3O[C@H](C[C@@H]3O)[C@@H]2C(=O)Nc2cc(Cl)cc(C(F)(F)F)c2)c(C(F)(F)F)n1` (racemic) [Example 34, rac-(1R,2R,3S,4R,5)-N-(3-chloro-5-(trifluoromethyl)phenyl)-5-hydroxy-3-(1-methyl-3-(trifluoromethyl)-1H-pyrazol-4-yl)-7-oxabicyclo[2.2.1]heptane-2-carboxamide]?
A: IC50: 6.5 µM; Emax: 101%

Q: With `Cn1nc(C(F)(F)F)cc1[C@H]1[C@H]2O[C@H](C[C@@H]2O)[C@@H]1C(=O)Nc1ccc(C(F)(F)F)c(Cl)c1` (racemic) [Example 73, rac-(1R,2R,3S,4R,5)-N-(3-chloro-4-trifluoromethyl)phenyl)-5-hydroxy-3-(1-methyl-3-(trifluoromethyl)-1H-pyrazol-5-yl)-7-oxabicyclo[2.2.1]heptane-2-carboxamide] as the compound, how does the IC50 read?
A: 7.1 µM

Q: What about the Emax of the same compound?
A: 105%

Q: With `Cn1cc([C@H]2[C@H]3O[C@H](C[C@@H]3O)[C@@H]2C(=O)Nc2cc(F)cc(C(F)(F)F)c2)c(C(F)(F)F)n1` (racemic) [Example 45, rac-(1R,2R,3S,4R,5S)—N-(3-fluoro-5-(trifluoromethyl)phenyl)-5-hydroxy-3-(1-methyl-3-(trifluoromethyl)-1H-pyrazol-4-yl)-7-oxabicyclo[2.2.1]heptane-2-carboxamide] as the compound, how does the IC50 read?
A: 7 µM

Q: What about the Emax of the same compound?
A: 61%

Q: What does the source list for `Cn1cc([C@H]2[C@H]3O[C@H](C[C@@H]3O)[C@@H]2C(=O)Nc2ccc(C#N)c(C(F)(F)F)c2)c(C(F)(F)F)n1` (racemic) [Example 51, rac-(1R,2R,3S,4R,5S)—N-(4-cyano-3-(trifluoromethyl)phenyl)-5-hydroxy-3-(1-methyl-3-(trifluoromethyl-1H-pyrazol-4-yl)-7-oxabicyclo[2.2.1]heptane-2-carboxamide]?
A: IC50: > 30 µM; Emax: 34%

Q: What does the source list for `Cn1nc(C(F)(F)F)cc1[C@H]1[C@H]2O[C@H](C[C@@H]2O)[C@@H]1C(=O)Nc1cc(C(F)(F)F)ccn1` (racemic) [Example 74, rac-(1R,2R,3,4R,5)-5-hydroxy-3-(1-methy-3-(trifluoromethyl)-1H-pyrazol-5-yl)-N-(4-(trifluoromethyl)pyridin-2-yl-7-oxabicyclo[2.2.1]heptane-2-carboxamide]?
A: IC50: 11 µM; Emax: 64%

Q: For `O=C(Nc1ccc(N2CCOCC2)c(C(F)(F)F)c1)[C@@H]1[C@@H](c2cccc(C(F)(F)F)c2)[C@H]2O[C@@H]1C[C@@H]2O` (racemic) [Example 23, rac-(1R,2R,3S,4R,5S)-5-hydroxy-N-(4-morpholino-3-(trifluoromethyl)phenyl)-3-(3-(trifluoromethyl)phenyl)-7-oxabicyclo[2.2.1]heptane-2-carboxamide], which IC50 is on record?
A: 17 µM

Q: And the Emax?
A: 108%

Q: Which IC50 does the source give for `N#Cc1ccc(C(F)(F)F)cc1NC(=O)[C@@H]1[C@@H](c2cccc(C(F)(F)F)c2)[C@H]2O[C@@H]1C[C@@H]2O` (racemic) [Example 48, rac-(1R,2R,3S,4R,5S)—N-(2-cyano-5-(trifluoromethyl)phenyl)-5-hydroxy-3-(3-(trifluoromethyl)phenyl)-7-oxabicyclo[2.2.1]heptane-2-carboxamide] here?
A: 0.088 µM

Q: And the Emax?
A: 92%

Q: With `O=C(Nc1cccc(C(F)(F)F)c1)[C@@H]1[C@@H](c2cnc(C(F)(F)F)nc2)[C@H]2O[C@@H]1C[C@@H]2O` (racemic) [Example 83, rac-(1R,2R,3S,4R,5S)-5-hydroxy-N-(3-(trifluoromethyl)phenyl)-3-(2-(trifluoromethyl)pyrimidin-5-yl)-7-oxabicyclo[2.2.1]heptane-2-carboxamide] as the compound, how does the IC50 read?
A: 24 µM

Q: What about the Emax of the same compound?
A: 43%

Q: How did the IC50 turn out when `Cc1c(NC(=O)[C@@H]2[C@@H](c3cn(C)nc3C(F)(F)F)[C@H]3O[C@@H]2C[C@@H]3O)cccc1C(F)(F)F` (racemic) [Example 42, rac-(1R,2R,3S,4R,5S)-5-hydroxy-3-(1-methyl-3-(trifluoromethyl)-1H-pyrazol-4-yl)-N-(2-methyl-3-(trifluoromethyl)phenyl)-7-oxabicyclo[2.2.1]heptane-2-carboxamide] was run?
A: > 30 µM

Q: And the Emax?
A: 21%

Q: For `CCOc1cc(C(F)(F)F)cc(NC(=O)[C@@H]2[C@@H](c3cn(C)nc3C(F)(F)F)[C@H]3O[C@@H]2C[C@@H]3O)n1` (racemic) [Example 39, rac-(1R,2R,3S,4R,5S)—N-(6-ethoxy-4-(trifluoromethyl)pyridin-2-yl)-5-hydroxy-3-(1-methyl-3-(trifluoromethyl)-1H-pyrazol-4-yl)-7-oxabicyclo[2.2.1]heptane-2-carboxamide], which IC50 is on record?
A: 4 µM

Q: What about the Emax of the same compound?
A: 64%

Q: With `O=C(Nc1ccc(Cl)c(C(F)(F)F)c1)[C@@H]1[C@@H](c2cccc(C(F)(F)F)c2)[C@H]2O[C@@H]1C[C@@H]2O` (racemic) [Example 18, rac-(1R,2R,3S,4R,5)-N-(4-chloro-3-(trifluoromethyl)phenyl)-5-hydroxy-3-(3-(trifluoromethyl)phenyl)-7-oxabicyclo[2.2.1]heptane-2-carboxamide] as the compound, how does the IC50 read?
A: 8 µM

Q: And the Emax?
A: 102%

Q: Which IC50 does the source give for `O=C(Nc1ccc(C(F)(F)F)cn1)[C@@H]1[C@@H](c2cccc(C(F)(F)F)c2)[C@H]2O[C@@H]1C[C@@H]2O` (racemic) [Example 26, rac-(1R,2R,3S,4R,5S)-5-hydroxy-3-(3-(trifluoromethyl)phenyl)-N-(5-(trifluoromethyl)pyridin-2-yl-7-oxabicyclo[2.2.1]heptane-2-carboxamide] here?
A: 11 µM

Q: And the Emax?
A: 112%

Q: Which IC50 does the source give for `COc1ccc(NC(=O)[C@@H]2[C@@H](c3cccc(C(F)(F)F)c3)[C@H]3O[C@@H]2C[C@@H]3O)cc1C(F)(F)F` (racemic) [Example 20, rac-(1R,2R,3S,4R,5S)-5-hydroxy-N-(4-methoxy-3-trifluoromethyl)phenyl)-3-(3-(trifluoromethyl)phenyl)-7-oxabicyclo[2.2.1]heptane-2-carboxamide] here?
A: 14 µM

Q: What about the Emax of the same compound?
A: 102%

Q: Which IC50 does the source give for `O=C(Nc1ccc(C(F)(F)F)nc1)[C@@H]1[C@@H](c2cccc(C(F)(F)F)c2)[C@H]2O[C@@H]1C[C@@H]2O` (racemic) [Example 27, rac-(1R,2R,3S,4R,5S)-5-hydroxy-3-(3-(trifluoromethyl)phenyl)-N-(6-(trifluoromethyl)pyridin-3-yl)-7-oxabicyclo[2.2.1]heptane-2-carboxamide] here?
A: > 30 µM

Q: What about the Emax of the same compound?
A: 38%

Q: `O=C(Nc1cc(C(F)(F)F)ccn1)[C@@H]1[C@@H](c2cccc(C(F)(F)F)c2)[C@H]2O[C@@H]1C[C@@H]2O` (racemic) [Example 4, rac-(1R,2R,3S,4R,5S)-5-hydroxy-3-(3-trifluoromethyl)phenyl)-N-(4-(trifluoromethyl)pyridin-2-yl)-7-oxabicyclo[2.2.1]heptane-2-carboxamide] was tested. Which IC50 did it give?
A: 7.1 µM

Q: And the Emax?
A: 90%
